Where two headings read alike, the source gives them in different places.
Legend:
Assay type in all cases: cell-based
[1] = tested on: SW480 (colon adenocarcinoma cell line); assay: In vitro MTS cell viability assay (NCI-60 methodology), SW480; settings: Homo sapiens, SW480 cells, read-out: SW480 LC50
Outline: (§1)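 NCI-60 style: compound added 24 h post-plating at five 2-fold dilutions plus DMSO control, then 2 days' incubation, MTS read-out. Time-zero plate gives Tz; LC50 is the concentration where [(Ti−Tz)/Tz]×100=−50.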

[2] = tested on: NCI-H460 (human lung cancer cell line); assay: In vitro MTS cell viability assay (NCI-60 methodology), NCI-H460; settings: NCI-H460 cells, read-out: NCI-H460 LC50
Outline: as §1

[3] = tested on: Hep3B cells (hepatocellular carcinoma cell line); assay: In vitro MTS cell viability assay (NCI-60 methodology), Hep3B; settings: Homo sapiens, 48 h, 2 days drug incubation, 50% reduction vs time zero, read-out: Hep3B LC50
Outline: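 Hep3B cells given five 2-fold dilutions of compound for 2 days, with viability by MTS measured at time zero and at end. LC50 is the concentration giving a 50% fall in viable cells relative to the start of treatment, per NCI-60 formula.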

Row | Compound | CC50 [1] [nM] | CC50 [2] [nM] | LC50 ([3]; Table 6, MTS) [nM] | LC50 ([3]; Table 5, MTS) [nM] | LC50 ([3]; Table 10, MTS) [nM]
1 | Cc1ccc(-n2ncc3c(NC(=O)c4ccc([N+](=O)[O-])s4)nc(-c4ccc(F)cc4)nc32)cc1 [Compound 6-4, N-(6-(4-fluorophenyl)-1-(p-tolyl)-1H-pyrazolo[3,4-d]pyrimidin-4-yl)-5-nitrothiophene-2-carboxamide] | 1510 | 680 | 280 |  | 
2 | O=C(Nc1nc(-c2cccs2)nc2c1cnn2-c1ccccc1)c1ccc([N+](=O)[O-])s1 [Compound 5-18, 5-nitro-N-(1-phenyl-6-(thiophen-2-yl)-1H-pyrazolo[3,4-d]pyrimidin-4-yl)thiophene-2-carboxamide] | 2430 | 460 |  | 580 | 
3 | CCOCCOCCOc1ccc(-c2nc(NC(=O)c3ccc([N+](=O)[O-])s3)c3cnn(-c4ccc(Cl)cc4)c3n2)cn1 [Compound 6-53, N-(1-(4-chlorophenyl)-6-(6-(2-(2-ethoxyethoxy)ethoxy)pyridin-3-yl)-1H-pyrazolo[3,4-d]pyrimidin-4-yl)-5-nitrothiophene-2-carboxamide] | 1040 | 1090 | 130 |  | 
4 | O=C(Nc1nc(-c2ccc(F)cc2F)nc2c1cnn2-c1ccccc1)c1ccc([N+](=O)[O-])s1 [Compound 5-45, N-(6-(2,4-difluorophenyl)-1-phenyl-1H-pyrazolo[3,4-d]pyrimidin-4-yl)-5-nitrothiophene-2-carboxamide] | 1110 | 2180 |  | 440 | 
5 | O=C(Nc1nc(-c2ccc(F)nc2)nc2c1cnn2-c1ccccc1)c1ccc([N+](=O)[O-])s1 [Compound 5-28, N-(6-(6-fluoropyridin-3-yl)-1-phenyl-1H-pyrazolo[3,4-d]pyrimidin-4-yl)-5-nitrothiophene-2-carboxamide] | 590 | 280 |  | 130 | 
6 | O=C(Nc1nc(-c2ccc(F)nc2)nc2c1cnn2-c1ccc(F)cc1)c1ccc([N+](=O)[O-])s1 [Compound 6-116, N-(1-(4-fluorophenyl)-6-(6-fluoropyridin-3-yl)-1H-pyrazolo[3,4-d]pyrimidin-4-yl)-5-nitrothiophene-2-carboxamide] | 550 | 500 | 90 |  | 
7 | O=C(Nc1nc(-c2cccc(Cl)c2)nc2c1cnn2-c1ccc(F)cc1)c1ccc([N+](=O)[O-])s1 [Compound 6-117, N-(6-(3-chlorophenyl)-1-(4-fluorophenyl)-1H-pyrazolo[3,4-d]pyrimidin-4-yl)-5-nitrothiophene-2-carboxamide] | 910 | 600 | 150 |  | 
8 | CC(C)(C)c1ccc(-n2ncc3c(NC(=O)c4ccc([N+](=O)[O-])s4)nc(N4CCC[C@H]4CO)nc32)cc1 [Compound 6-71, (S)—N-(1-(4-(tert-butyl)phenyl)-6-(2-(hydroxymethyl)pyrrolidin-1-yl)-1H-pyrazolo[3,4-d]pyrimidin-4-yl)-5-nitrothiophene-2-carboxamide] | 980 | 440 | 280 |  | 
9 | O=C(Nc1nc(-c2ccc(Cl)cc2Cl)nc2c1cnn2-c1ccccc1)c1ccc([N+](=O)[O-])s1 [Compound 5-49] | 3750 | 1220 |  | 270 | 
10 | O=C(Nc1nc(-c2ccc(F)nc2)nc2c1cnn2C1CCCCC1)c1ccc([N+](=O)[O-])s1 [Compound 10-14, N-(1-cyclohexyl-6-(6-fluoropyridin-3-yl)-1H-pyrazolo[3,4-d]pyrimidin-4-yl)-5-nitrothiophene-2-carboxamide] | 1710 | 910 |  |  | 890
11 | Cc1ccc(-n2ncc3c(NC(=O)c4ccc([N+](=O)[O-])s4)nc(-c4ccc(F)nc4)nc32)cc1 [Compound 6-5, N-(6-(6-fluoropyridin-3-yl)-1-(p-tolyl)-1H-pyrazolo[3,4-d]pyrimidin-4-yl)-5-nitrothiophene-2-carboxamide] | 650 | 910 | 110 |  | 
